Test results from US20210347823A1, “METHODS OF PHYSICOCHEMICAL-GUIDED PEPTIDE DESIGN AND NOVEL PEPTIDES DERIVED THEREFROM” (Massachusetts Institute of Technology, priority 2018, published 2021).

Columns and labels:
[1] = tested on: HEK293 human embryonic kidney cells; test: Cytotoxicity assay (MTS); assay type: cell-based; settings: for toxicity at 64 μmol L^−1: assay not stated; for Cytotoxicity: HEK293, 48 h, MTS, peptides 0-64 μmol L^−1
Procedure: FIGS. 7A-7B. Cytotoxicity of engineered peptides. FIG. 7A. Schematic of the experimental design for cytotoxicity assays of Pol-CP—NH2 and derivatives against HEK293 human embryonic kidney cells. Briefly, cells were cultured in DMEM medium supplemented with FBS and antibiotics at 37° C. and 5% CO2. FIG. 7B. Results obtained by seeding HEK293 50,000 cells and incubating with peptides' solution (0-64 μmol L^−1) at 37° C. for 48 h. Cell viability was measured by MTS assay. All experiments were performed in triplicate.
Cytotoxicity assays. Human embryonic kidney 293 (HEK 293) cells were cultured in Dulbecco's Modified Eagle Medium (DMEM) supplemented with 10% Fetal Bovine Serum (FBS) and 1% penicillin-streptomycin at 37° C. in 5% CO2. The day before treatment, 50,000 HEK 293 cells were seeded into each well in 96-well plates. The peptides were added at concentrations ranging from 0 to 64 ? mol L^−1 and 48 h after exposure, cell viability was measured by means of MTS (dimethylthiazol-carboxymethoxyphenyl-sulfophenyl-tetrazolium) assay. Experiments were performed in triplicate for each condition.

[2] = tested on: Gram-positive bacteria, Gram-negative bacteria and fungi (twelve different strains); test: Liquid growth inhibition MIC against larger panel of microorganisms (MIC average); assay type: cell-based; settings: for MIC Average: average of MIC over twelve different strains; for antimicrobial activity: second-generation analogs, larger panel
From the text: FIGS. 5A-5D. Antimicrobial activity of second-generation library of synthetic peptides. FIG. 5A. In vitro activity of Pol-CP—NH2 and second generation of analogs against Gram-positive bacteria (Micrococcus luteus, Staphylococcus aureus, Staphylococcus epidermidis and Bacillus megaterium), Funghi (Candida albicans and Candida tropicalis) and Gram-negative bacteria (Escherichia coli, Enterobacter cloacae and Serratia marcescens). Experiments performed in triplicates. FIG. 5B. MIC (μmol L^−1) average vs fH in TFE/Water solution. FIG. 5C. Graph correlating MIC (μmol L^−1) averages vs H and (FIG. 5D) MIC (μmol L^−1) averages vs μH, where dots above the dashed line represent peptides with lower activity and dots below the dashed line show peptides with higher activity compared to the wild-type, in which one can observe ranges of optimal activity in determined intervals of H and μH values.
Microorganisms. The following strains were used: Micrococcus luteus A270, Staphylococcus aureus ATCC29213, Staphylococcus epidermidis ATCC12228, Bacillus megaterium ATCC10778 Escherichia coli SBS 363, Enterobacter cloacae ®-12, Serratia marcescens ATCC4112, Candida albicans MDM8, Candida tropicalis IOC4560 from Instituto Butanta, Sao Paulo, Brazil, and Escherichia coli BL21, Pseudomonas aeruginosa PA14, Pseudomonas aeruginosa PA01 and Staphylococcus aureus ATCC12600 from Synthetic Biology Group at MIT.
MIC assays. The MIC assays were performed using the broth microdilution method (Wiegand I. et al., Protoc. 3, 163-175 (2008); de la Fuente-Núñez C. et al., Antimicrob. Agents Chemother. 56, 2696-2704 (2012)) in sterile 96-well polypropylene microtiter plates. Peptides were added to the plate as solutions in BM2 minimal medium in concentrations ranging from 0 to 128 ? mol L^−1, and the bacteria were inoculated at a final concentration of 5×10^5 CFU mL^−1 per well. The plates were incubated at 37° C. for 24 h. The MIC was defined as the lowest concentration of compound at which no growth was observed. Additional liquid growth inhibition assays were done in Peptone Broth (PB, 0.5% NaCl, 1% Peptone at pH 7.4) and Potato Dextrose Broth (Invitrogen) were used for antibacterial and antifungal assays, respectively. Briefly, bacteria or fungi were incubated with serial dilutions of polybia-CP and analogs (50-0.09 μmol L^−1) in a 96-well microplate at 37° C. The microbial growth was assessed by measurements in a model 354 Multiskan Ascent microplate reader at A595nm, after 18 and 24 h (bacteria and fungi, respectively) incubation on a model 347CD FANEM incubator. MIC was defined as the minimal inhibitory concentration that prevents 100% of the bacterial growth. All assays were done in triplicate.

For “H-ILGTILKLLKSL-NH2 [Peptide 16, ILGTILKLLKSL-NH2]”, the “toxicity at 64 μmol L^−1” value [1] was “toxic”, the Cytotoxicity [1] was 16.0 µmol/L and the Cytotoxicity ([1]; listed as [Lys]^7-Pol-CP—NH2) was 16 µmol/L. For the same substance, the “cytotoxic concentration relative to MIC against P. aeruginosa” value ([1]; HEK293 cytotoxicity vs MIC) was “two- to four-fold higher”, the “MIC Average” value [2] was 1.4 µM and the “antimicrobial activity” value ([2]; listed as [Lys]'-Pol-CP—NH2) was “impacted favorably both structure and antimicrobial activity”. The “antimicrobial activity” value ([2]; listed as [Lys]^7-Pol-CP—NH2) was “most active”.

For “H-ILGTILGLLKSL-NH2 [WT, ILGTILGLLKSL-NH2, reference compound]”, the “toxicity at 64 μmol L^−1” value [1] was “toxic”, the Cytotoxicity [1] was 32.0 µmol/L and the Cytotoxicity ([1]; listed as wild-type peptide) was 32 µmol/L. For the same substance, the “MIC Average” value [2] was 16.2 µM.
